Results: patent US12410155B2, “Salt form and crystal form of tetrahydrocyclohepta indazole compound” (Zhejiang Yangli Pharmaceutical Technology Co., Ltd., priority 2021, dated 2025)
Like-named read-outs stand apart in the source and are kept apart here.

Columns and labels:
[1] = tested on: human breast cancer MCF-7 cell subcutaneous xenograft tumor; assay type: in vivo; settings: for Tumor volume (mm^3) (Day 0): Day 0 (at grouping); for RTV (Day 21) / T/C (%) / TGI (%) / Tumor volume (mm^3) (Day 21): Day 21
Method: (1) In Vivo Pharmacodynamic Study of Breast Cancer MCF-7 Cell Subcutaneous Xenograft Tumor BALB/c Nude Mouse Model
Objective: This study aimed to evaluate the in vivo efficacy of the crystal form C of the compound of formula (I) using a human breast cancer MCF-7 cell subcutaneous xenograft tumor model in nude mice.
Routine digestion with trypsin-EDTA (Gibco) was performed twice a week for passaging.
Cell inoculation: Estrogen pellets (0.36 mg/pellet; IRA) were subcutaneously inoculated into the left dorsum of each mouse. Three days later, 0.2 mL (1×10^7 cells) of MCF-7 cells (mixed with Matrigel; CORNING, volume ratio 1:1) were subcutaneously inoculated into the right dorsum of each mouse. When the average tumor volume reached 188 mm^3, the mice were grouped and the administration of compounds began.
An appropriate amount of the compound of formula (I) was weighed and prepared into 0.1, 0.3, 1, and 3 mg/mL solutions. […] Fulvestrant was used as the commercially available injection Faslodex.
The antitumor efficacy of the compounds was evaluated using Tumor Growth Inhibition (TGI, %) and relative tumor proliferation rate (T/C, %).
The Q value of combined medication index was calculated using the Jin formula. The criteria for judgment were as follows: a Q value of 0.85 to 1.15 indicated […] (+); a Q value>1.15 to 2.0 indicated enhancement (++); a Q value<0.85 to 0.55 indicated antagonism (−); and a Q value<0.55 indicated significant antagonism (−−). The formula was Q=Ea+b/(Ea+Eb−Ea×Eb), where Ea+b was the tumor inhibition rate of the combined medication group, and Ea and Eb were the tumor inhibition rates of the single medication groups, respectively.
Inter-group comparisons were analyzed using one-way ANOVA. […] A p value<0.05 was considered to indicate a significant difference.

[2] = Pharmacokinetic study in rats; assay type: in vivo; settings: both sexes, Sprague-Dawley, rat, plasma
Method: (3) Pharmacokinetic Study in Rats
Objective: To determine the concentration of the test compound in plasma at various time points after intravenous and intragastric administration in male and female Sprague-Dawley rats using the LC/MS/MS method.
An appropriate amount of the sample was weighed and prepared into a 0.2 mg/ml solution, and stirred until a clear solution was obtained, with 20% SBE-β-CD as the vehicle.
Administration: After an overnight fast, the IV group received intravenous administration at a dose of 1 mg/kg; the PO group received intragastric administration at a dose of 2 mg/kg.
For the intravenous injection group, male and female Sprague-Dawley rats were administered the test compound, and blood samples (200 μL) were collected from the jugular vein at 0.0830, 0.250, 0.500, 1.00, 2.00, 4.00, 6.00, 8.00, 24.0, 32.0, and 48.0 hours post-administration. The samples were placed into commercially available anticoagulant tubes pre-filled with EDTA-K2. For the intragastric administration group, after administering the test compound, blood samples (200 μL) were collected from the jugular vein at 0.250, 0.500, 1.00, 2.00, 4.00, 6.00, 8.00, 24.0, 32.0, and 48.0 hours. These samples were also placed into commercially available anticoagulant tubes pre-filled with EDTA-K2. Following centrifugation (3,200 g, 4° C., 10 minutes), the plasma was transferred to pre-chilled centrifuge tubes, flash-frozen in dry ice, and stored in an ultra-low temperature freezer at −60° C. or lower until LC-MS/MS analysis. Animals were allowed to eat 4 hours post-dosing. The concentration of the test compound in the plasma of rats after intravenous and intragastric administration was determined using the LC/MS/MS method.

[3] = Pharmacokinetic study in Beagle dogs; assay type: in vivo; settings: both sexes, dog, plasma, Beagles
Method: (4) Pharmacokinetic Study in Beagle Dogs
Objective: To determine the concentration of the test compound in plasma at various time points after intravenous and intragastric administration in male and female Beagle dogs using the LC/MS/MS method.
An appropriate amount of the sample was weighed and prepared into 0.2 mg/mL and 0.3 mg/mL solutions, stirred until a clear solution was obtained, with 20% SBE-β-CD as the vehicle.
Administration: After an overnight fast, the IV group received intravenous administration at a dose of 0.3 mg/kg; the PO group received intragastric administration at a dose of 1 mg/kg.
For the intravenous injection group, Beagle dogs were administered the test compound, and blood samples (800 μL) were collected from the peripheral vein at 0.25, 0.5, 1, 2, 4, 6, 8, 24, 32, 48, 72, and 96 hours post-administration. The samples were placed into commercially available anticoagulant tubes pre-filled with EDTA-K2. For the intragastric administration group, after administering the test compound, blood samples (800 μL) were collected from the peripheral vein at 0.25, 0.5, 1, 2, 4, 6, 8, 24, 32, 48, 72, and 96 hours. These samples were also placed into commercially available anticoagulant tubes pre-filled with EDTA-K2. Following centrifugation (3,200 g, 2-8° C., 10 minutes), the plasma was transferred to pre-chilled centrifuge tubes, flash-frozen in dry ice, and stored in an ultra-low temperature freezer at −60° C. or lower until LC-MS/MS analysis. Animals were allowed to eat 4 hours post-dosing. The concentration of the test compound in the plasma of Beagle dogs after intravenous and intragastric administration was determined using the LC/MS/MS method.

[4] = Pharmacokinetic study in mice; assay type: in vivo; settings: female, Balb/c, mouse, plasma
Method: (2) Pharmacokinetic Study in Mice
Objective: To determine the concentration of the test compound in plasma at various time points after intravenous and intragastric administration in female Balb/c mice using the LC/MS/MS method. To investigate the pharmacokinetic behavior of the crystal form C of the compound of formula (I) in mice and to evaluate its pharmacokinetic characteristics.
Administration: After an overnight fast, the IV group received intravenous administration at a dose of 5 mg/kg; the PO group received intragastric administration at a dose of 10 mg/kg.
For the intravenous injection group, female Balb/c mice were administered the test compound, and blood samples (30 μL) were collected from the saphenous vein at 0.0833, 0.25, 0.5, 1, 2, 4, 8, and 24 hours post-administration. The samples were placed into commercially available anticoagulant tubes pre-filled with EDTA-K2. For the intragastric administration group, after administering the test compound, blood samples (30 μL) were collected from the jugular vein at 0.25, 0.5, 1, 2, 4, 8, 12, and 24 hours. These samples were also placed into commercially available anticoagulant tubes pre-filled with EDTA-K2. Following centrifugation (3,200 g, 4° C., 10 minutes), the plasma was transferred to pre-chilled centrifuge tubes, flash-frozen in dry ice, and stored in an ultra-low temperature freezer at −60° C. or lower until LC-MS/MS analysis. Animals were allowed to eat 4 hours post-dosing. The concentration of the test compound in the plasma of mice after intravenous and intragastric administration was determined using the LC/MS/MS method.

[5] = in vivo; cited from earlier work
breast cancer = settings: intramuscular injection; cited from earlier work

For `CC(=O)c1c(C)c2cnc(Nc3ccc(N4CCNCC4)cn3)nc2n(C2CCCC2)c1=O` [Palbociclib, reference compound], the DCR % ([1]; 25 mg/kg, PO, QD) was 12.5%, the ORR % ([1]; 25 mg/kg, PO, QD) was 0% and the “Tumor volume (mm^3) (Day 0)” value ([1]; 25 mg/kg, PO, QD) was 188 ± 12 mm^3. For the same molecule, the “RTV (Day 21)” value ([1]; 25 mg/kg, PO, QD) was 4.26 ± 0.51, the “T/C (%)” value ([1]; 25 mg/kg, PO, QD) was 64.0% and the “TGI (%)” value ([1]; 25 mg/kg, PO, QD) was 42.8%. The “Tumor volume (mm^3) (Day 21)” value ([1]; 25 mg/kg, PO, QD) was 781 ± 77 mm^3 and the “Tumor volume (mm^3) (Day 21)” value ([1]; 25 mg/kg, PO, QD, listed as palbociclib) was 781 mm^3.

With `CS(=O)(=O)O.FCCCN1CC[C@H](Nc2cnc(C3=C(CC(F)(F)F)CCCc4c3ccc3[nH]nc(F)c43)cn2)C1` the AUC(0-t) ([2]; IV, 1 mg/kg) was 1.71 µM·h, the clearance ([2]; IV, 1 mg/kg) was 22.1 mL/min/kg and the half-life ([2]; IV, 1 mg/kg) was 10.6 h. The Vd ([2]; IV, 1 mg/kg, read-out: Vdss) was 13.6 L/kg, the AUC(0-t) ([2]; PO, 2 mg/kg) was 1.63 µM·h and the Cmax ([2]; PO, 2 mg/kg) was 87.7 nM. It also gave a bioavailability ([2]; PO, 2 mg/kg) of 47.7%, a half-life ([2]; PO, 2 mg/kg) of 10.3 h and an AUC(0-t) ([3]; IV, 0.3 mg/kg) of 1.31 µM·h. The clearance ([3]; IV, 0.3 mg/kg) was 3.8 mL/min/kg, the half-life ([3]; IV, 0.3 mg/kg) was 24.2 h and the Vd ([3]; IV, 0.3 mg/kg, read-out: Vdss) was 7.48 L/kg. It also gave an AUC(0-t) ([3]; PO, 1 mg/kg) of 2.27 µM·h, a Cmax ([3]; PO, 1 mg/kg) of 61 nM and a bioavailability ([3]; PO, 1 mg/kg) of 52%. It also gave a half-life ([3]; PO, 1 mg/kg) of 21.6 h.

Molecule `FCCCN1CC[C@H](Nc2cnc(C3=C(CC(F)(F)F)CCCc4c3ccc3[nH]nc(F)c43)cn2)C1` has an AUC(0-t) ([4]; IV, 5 mg/kg) of 5.27 µM·h, a clearance ([4]; IV, 5 mg/kg) of 30.2 mL/min/kg and a half-life ([4]; IV, 5 mg/kg) of 5.16 h. For the same molecule, the Vd ([4]; IV, 5 mg/kg, read-out: Vdss) was 11.1 L/kg, the AUC(0-t) ([4]; PO, 10 mg/kg) was 5.86 µM·h and the Cmax ([4]; PO, 10 mg/kg) was 779 nM. The bioavailability ([4]; PO, 10 mg/kg) was 55.4%, the half-life ([4]; PO, 10 mg/kg) was 4.72 h and the ORR % ([1]; 1 mg/kg, PO, QD) was 0%. The “Tumor volume (mm^3) (Day 0)” value ([1]; 1 mg/kg, PO, QD) was 188 ± 12 mm^3, the “RTV (Day 21)” value ([1]; 1 mg/kg, PO, QD) was 1.82 ± 0.12 and the “Tumor volume (mm^3) (Day 21)” value ([1]; 1 mg/kg, PO, QD) was 340 ± 30 mm^3. The DCR % ([1]; 3 mg/kg, PO, QD) was 100%, the ORR % ([1]; 3 mg/kg, PO, QD) was 0% and the “Tumor volume (mm^3) (Day 0)” value ([1]; 3 mg/kg, PO, QD) was 188 ± 13 mm^3. The “RTV (Day 21)” value ([1]; 3 mg/kg, PO, QD) was 0.99 ± 0.11, the “Tumor volume (mm^3) (Day 21)” value ([1]; 3 mg/kg, PO, QD) was 179 ± 14 mm^3 and the “Tumor volume (mm^3) (Day 0)” value ([1]; 10 mg/kg, PO, QD) was 188 ± 12 mm^3. For the same molecule, the “RTV (Day 21)” value ([1]; 10 mg/kg, PO, QD) was 0.75 ± 0.09, the “Tumor volume (mm^3) (Day 21)” value ([1]; 10 mg/kg, PO, QD) was 140 ± 18 mm^3 and the “Tumor volume (mm^3) (Day 0)” value ([1]; 30 mg/kg, PO, QD) was 188 ± 12 mm^3. The “RTV (Day 21)” value ([1]; 30 mg/kg, PO, QD) was 0.64 ± 0.07, the “Tumor volume (mm^3) (Day 21)” value ([1]; 30 mg/kg, PO, QD) was 121 ± 13 mm^3 and the “Tolerability in tumor-bearing mice” value ([1]; 1 to 30 mg/kg, PO, QD) was “tolerated the crystal form C of the compound of formula (I) well”.

In the case of `C[C@]12CC[C@@H]3c4ccc(O)cc4C[C@@H](CCCCCCCCC[S+]([O-])CCCC(F)(F)C(F)(F)F)[C@H]3[C@@H]1CC[C@@H]2O` (stereo partly drawn) [Fulvestrant, reference compound], the DCR % ([1]; 5 mg/mouse, SC, QW) is reported as 0%, the “Tumor volume (mm^3) (Day 0)” value ([1]; 5 mg/mouse, SC, QW) is reported as 188 ± 12 mm^3 and the “RTV (Day 21)” value ([1]; 5 mg/mouse, SC, QW) is reported as 3.12 ± 0.31. For the same molecule, the “T/C (%)” value ([1]; 5 mg/mouse, SC, QW) was 46.9%, the “TGI (%)” value ([1]; 5 mg/mouse, SC, QW) was 60.9% and the “Tumor volume (mm^3) (Day 21)” value ([1]; 5 mg/mouse, SC, QW) was 593 ± 79 mm^3. For the same molecule, the “Tumor volume (mm^3) (Day 21)” value ([1]; 5 mg/mouse, SC, QW, listed as fulvestrant) was 593 mm^3, the oral bioavailability [5] was “near-zero” and the “breast cancer patients showing a clinical response” value (breast cancer) was “about 50%”.
